Assay results published in patent US7491794B2, “Macrocyclic compounds as inhibitors of viral replication” (Intermune, Inc., priority 2003, dated 2009).
pEC50, pIC50: −log10 of the molar value. Like-named read-outs stand apart in the source and are kept apart here.

Columns and labels:
NS3-NS4A protease = molecular target: T1, NS3-NS4A protease (Hepatitis C virus genotype 1a, UniProt P27958); assay: NS3-NS4A protease assay (NS3 inhibition assay, RETS1 substrate), Section B; format: biochemical
T1 construct: Recombinant E. coli or Baculovirus full-length NS3 was diluted to 3.33 μM with assay buffer; made in house; host or cells: E. coli or baculovirus (BV) system
Procedure, shortened: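 Full-length NS3 (E. coli or baculovirus) precomplexed with excess NS4A-2 peptide, run at 2 nM (E. coli) or 3 nM (BV) NS3; compounds pre-incubated 10 min at room temperature before RETS1 substrate. Fluorescence (ex 335/em 495 nm) read kinetically 30 min; IC50 from four-parameter fit, converted to Ki via Ki=IC50/(1+[S]/Km).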

[1] = test system: HCV sub-genomic replicon, GS4.3; assay: Quantitation by ELISA of NPTII in the HCV sub-genomic replicon, GS4.3, Section B; format: cell-based; conditions: Hepatitis C virus, read-out: Replicon EC50
Description: Quantitation by ELISA of the Selectable Marker Protein, Neomycin Phosphotransferase II (NPTII) in the HCV Sub-Genomic Replicon, GS4.3
The HCV sub-genomic replicon (1377/NS3-3′, accession No. AJ242652), stably maintained in HuH-7 hepatoma cells, was created by Lohmann et al. Science 285: 110-113 (1999). The replicon-containing cell culture, designated GS4.3, was obtained from Dr. Christoph Seeger of the Institute for Cancer Research, Fox Chase Cancer Center, Philadelphia, Pa.
GS4.3 cells were maintained at 37° C., 5% CO2, in DMEM (Gibco 11965-092) supplemented with L-glutamine 200 mM (100×) (Gibco25030-081), non-essential amino acids (NEAA)(Biowhittaker 13-114E), heat-inactivated (HI) Fetal Bovine Serum(FBS)(Hyclone SH3007.03) and 750 μg/ml geneticin (G418)(Gibco 10131-035). Cells were sub-divided 1:3 or 4 every 2-3 days.
24 hours prior to the assay, GS4.3 cells were collected, counted, and plated in 96-well plates (Costar 3585) at 7500 cells/well in 100 μl standard maintenance medium (above) and incubated in the conditions above. To initiate the assay, culture medium was removed, cells were washed once with PBS (Gibco 10010-023) and 90 μl Assay Medium (DMEM, L-glutamine, NEAA, 10% HI FBS, no G418) was added. Inhibitors were made as a 10× stock in Assay Medium, (3-fold dilutions from 10 μM to […] final concentration, final DMSO concentration 1%), 10 μl were added to duplicate wells, plates were rocked to mix, and incubated as above for 72 h.
An NPTII ELISA kit was obtained from AGDIA, Inc. (Compound direct ELISA test system for Neomycin Phosphotransferase II, PSP 73000/4800). Manufacturer's instructions were followed, with some modifications. 10×PEB-1 lysis buffer was made up to include 500 μM PMSF (Sigma P7626, 50 mM stock in isopropanol). After 72 h incubation, cells were washed once with PBS and 150 μl PEB-1 with PMSF was added per well. Plates were agitated vigorously for 15 minutes, room temperature, then frozen at −70° C. Plates were thawed, lysates were mixed thoroughly, and 100 μl were applied to an NPTII Elisa plate. A standard curve was made. Lysate from DMSO-treated control cells was pooled, serially diluted with PEB-1 with PMSF, and applied to duplicate wells of the ELISA plate, in a range of initial lysate amount of 150u1-2.5 ul. In addition, 100 μl buffer alone was applied in duplicate as a blank. Plates were sealed and gently agitated at room temperature for 2 h. Following capture incubation, the plates were washed 5×300 μl with PBS-T (0.5% Tween-20, PBS-T was supplied in the ELISA kit). For detection, a 1× dilution of enzyme conjugate diluent MRS-2 (5×) was made in PBS-T, into which 1:100 dilutions of enzyme conjugates A and B were added, as per instructions. Plates were resealed, and incubated with agitation, covered, room temperature, for 2 h. The washing was then repeated and 100 μl of room temperature TMB substrate was added. After approximately 30 minutes incubation (room temperature, agitation, covered), the reaction was stopped with 50 μl 3M sulfuric acid. Plates were read at 450 nm on a Molecular Devices Versamax plate reader.
Inhibitor effect was expressed as a percentage of DMSO-treated control signal, and inhibition curves were calculated using a 4-parameter equation: y=A+((B−A)/(1+((C/x)^D))), where C is half-maximal activity or EC50.

T1 sequence (P27958 1027-1657): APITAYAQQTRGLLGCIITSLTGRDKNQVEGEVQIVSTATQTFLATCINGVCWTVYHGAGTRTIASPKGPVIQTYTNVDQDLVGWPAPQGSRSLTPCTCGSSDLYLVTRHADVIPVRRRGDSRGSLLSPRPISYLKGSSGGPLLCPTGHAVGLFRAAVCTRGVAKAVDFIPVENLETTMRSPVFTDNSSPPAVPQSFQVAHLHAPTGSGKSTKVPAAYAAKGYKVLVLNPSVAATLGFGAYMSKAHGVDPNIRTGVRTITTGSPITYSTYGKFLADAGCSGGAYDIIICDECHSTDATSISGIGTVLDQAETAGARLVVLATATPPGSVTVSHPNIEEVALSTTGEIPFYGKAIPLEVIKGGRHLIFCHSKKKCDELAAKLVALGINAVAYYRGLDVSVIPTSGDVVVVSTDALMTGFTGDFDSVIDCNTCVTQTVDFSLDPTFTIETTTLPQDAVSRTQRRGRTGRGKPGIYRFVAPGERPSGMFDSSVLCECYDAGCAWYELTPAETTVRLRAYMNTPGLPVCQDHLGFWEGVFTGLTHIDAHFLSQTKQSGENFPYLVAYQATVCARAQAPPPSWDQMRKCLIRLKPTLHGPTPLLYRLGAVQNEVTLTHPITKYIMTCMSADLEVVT

| SMILES | pIC50 (NS3-NS4A protease; read-out: NS3-NS4A IC50) | pEC50 ([1]; GS4.3 cells, 72 h incubation) | pIC50 (NS3-NS4A protease) | pEC50 ([1]; 72 h) |
| --- | --- | --- | --- | --- |
| CC(C)(C)OC(=O)N[C@H]1CCCCC/C=C\[C@@H]2C[C@@]2(C(=O)O)NC(=O)[C@@H]2C[C@@H](OC(=O)N3CCc4ccccc43)CN2C1=O [AR00291875, (1S,4R,6S,14S,18R)-14-tert-Butoxycarbonylamino-18-(2,3-dihydro-indole-1-carbonyloxy)-2,15-dioxo-3,16-diaza-tricyclo[14.3.0.0^4,6]nonadec-7-ene-4-carboxylic acid] | > 6.00 | > 5.00 | – | – |
| CC(C)(C)NC(=O)N[C@H]1CCCCC/C=C\[C@@H]2C[C@@]2(C(=O)O)NC(=O)[C@@H]2C[C@@H](OC(=O)N3CCc4ccccc4C3)CN2C1=O [AR00294377, (1S,4R,6S,14S,18R)-14-(3-tert-Butyl-ureido)-18-(3,4-dihydro-1H-isoquinoline-2-carbonyloxy)-2,15-dioxo-3,16-diaza-tricyclo[14.3.0.0^4,6]nonadec-7-ene-4-carboxylic acid] | > 6.00 | > 5.00 | – | – |
| O=C(NC1CCCC1)N[C@H]1CCCCC/C=C\[C@@H]2C[C@@]2(C(=O)O)NC(=O)[C@@H]2C[C@@H](OC(=O)N3CCc4ccccc4C3)CN2C1=O [AR00294378, (1S,4R,6S,14S,18R)-14-(3-Cyclopentyl-ureido)-18-(3,4-dihydro-1H-isoquinoline-2-carbonyloxy)-2,15-dioxo-3,16-diaza-tricyclo[14.3.0.0^4,6]nonadec-7-ene-4-carboxylic acid] | > 6.00 | > 5.00 | – | – |
| CC(C)(C)OC(=O)N[C@H]1CCCCC/C=C\[C@@H]2C[C@@]2(C(=O)NS(=O)(=O)C2CC2)NC(=O)[C@@H]2C[C@@H](OC(=O)N3Cc4ccccc4C3)CN2C1=O [AR00294381, (1S,4R,6S,14S,18R)-1,3-Dihydro-isoindole-2-carboxylic acid 14-tert-butoxycarbonylamino-4-cyclopropanesulfonylaminocarbonyl-2,15-dioxo-3,16-diaza-tricyclo[14.3.0.0^4,6]nonadec-7-en-18-yl ester] | > 7.00 | > 7.00 | – | – |
| CC(C)(C)OC(=O)N[C@H]1CCCCC/C=C\[C@@H]2C[C@@]2(C(=O)O)NC(=O)[C@@H]2C[C@@H](OC(=O)N3CCc4c(F)cccc4C3)CN2C1=O [AR00294384, (1S,4R,6S,14S,18R)-14-tert-Butoxycarbonylamino-18-(5-fluoro-3,4-dihydro-1H-isoquinoline-2-carbonyloxy)-2,15-dioxo-3,16-diaza-tricyclo[14.3.0.0^4,6]nonadec-7-ene-4-carboxylic acid] | > 6.00 | > 5.00 | – | – |
| CC(C)(C)OC(=O)N[C@H]1CCCCC/C=C\[C@@H]2C[C@@]2(C(=O)NS(=O)(=O)C2CC2)NC(=O)[C@@H]2C[C@@H](OC(=O)N3CCc4c(F)cccc4C3)CN2C1=O [AR00298996, (1S,4R,6S,14S,18R)-5-Fluoro-3,4-dihydro-1H-isoquinoline-2-carboxylic acid 14-tert-butoxycarbonylamino-4-cyclopropanesulfonylaminocarbonyl-2,15-dioxo-3,16-diaza-tricyclo[14.3.0.0^4,6]nonadec-7-en-18-yl ester] | > 7.00 | > 7.00 | – | – |
| CC(C)(C)OC(=O)N[C@H]1CCCCC/C=C\[C@@H]2C[C@@]2(C(=O)NS(=O)(=O)C2CC2)NC(=O)[C@@H]2C[C@@H](OC(=O)N3CCc4cccc(C(F)(F)F)c4C3)CN2C1=O [AR00298997, (1S,4R,6S,14S,18R)-8-Trifluoromethyl-3,4-dihydro-1H-isoquinoline-2-carboxylic acid 14-tert-butoxycarbonylamino-4-cyclopropanesulfonylaminocarbonyl-2,15-dioxo-3,16-diaza-tricyclo[14.3.0.0^4,6]nonadec-7-en-18-yl ester] | > 7.00 | > 7.00 | – | – |
| CC(C)[C@@H](NC(=O)c1cnccn1)C(=O)N[C@H]1CCCCC/C=C\[C@@H]2C[C@@]2(C(=O)O)NC(=O)[C@@H]2C[C@@H](OC(=O)N3CCc4ccccc4C3)CN2C1=O [AR00301338, (1S,4R,6S,14S,18R)-18-(3,4-Dihydro-1H-isoquinoline-2-carbonyloxy)-14-{3-methyl-2-[(pyrazine-2-carbonyl)-amino]-butyrylamino}-2,15-dioxo-3,16-diaza-tricyclo[14.3.0.0^4,6]nonadec-7-ene-4-carboxylic acid] | – | – | > 7.00 | > 5.00 |
| CC(C)(C)OC(=O)N[C@H]1CCCCC/C=C\[C@@H]2C[C@@]2(C(=O)O)NC(=O)[C@@H]2C[C@@H](OC(=O)N3CCc4c(N)cccc4C3)CN2C1=O [AR00301745, (1S,4R,6S,14S,18R)-18-(5-Amino-3,4-dihydro-1H-isoquinoline-2-carbonyloxy)-14-tert-butoxycarbonylamino-2,15-dioxo-3,16-diaza-tricyclo[14.3.0.0^4,6]nonadec-7-ene-4-carboxylic acid] | > 6.00 | > 5.00 | – | – |
| CC(C)(C)OC(=O)N[C@H]1CCCCC/C=C\[C@@H]2C[C@@]2(C(=O)NS(=O)(=O)C2CC2)NC(=O)[C@@H]2C[C@@H](OC(=O)N3CCc4ccc(Cl)cc4C3)CN2C1=O [AR00301746, (1S,4R,6S,14S,18R)-7-Chloro-3,4-dihydro-1H-isoquinoline-2-carboxylic acid 14-tert-butoxycarbonylamino-4-cyclopropanesulfonylaminocarbonyl-2,15-dioxo-3,16-diaza-tricyclo[14.3.0.0^4,6]nonadec-7-en-18-yl ester] | > 7.00 | > 7.00 | – | – |
| CC(C)(C)OC(=O)N[C@H]1CCCCC/C=C\[C@@H]2C[C@@]2(C(=O)NS(=O)(=O)C2CC2)NC(=O)[C@@H]2C[C@@H](OC(=O)N3CCc4cc(C(F)(F)F)ccc4C3)CN2C1=O [AR00301747, (1S,4R,6S,14S,18R)-6-Trifluoromethyl-3,4-dihydro-1H-isoquinoline-2-carboxylic acid 14-tert-butoxycarbonylamino-4-cyclopropanesulfonylaminocarbonyl-2,15-dioxo-3,16-diaza-tricyclo[14.3.0.0^4,6]nonadec-7-en-18-yl ester] | > 7.00 | > 7.00 | – | – |
| CC(C)(C)OC(=O)N[C@H]1CCCCC/C=C\[C@@H]2C[C@@]2(C(=O)O)NC(=O)[C@@H]2C[C@@H](OC(=O)N3CCc4ccc(N)cc4C3)CN2C1=O [AR00301749, (1S,4R,6S,14S,18R)-18-(7-Amino-3,4-dihydro-1H-isoquinoline-2-carbonyloxy)-14-tert-butoxycarbonylamino-2,15-dioxo-3,16-diaza— tricyclo[14.3.0.0^4,6]nonadec-7-ene-4-carboxylic acid] | > 6.00 | > 5.00 | – | – |
| CC(C)(C)OC(=O)N[C@H]1CCCCC/C=C\[C@@H]2C[C@@]2(C(=O)NS(=O)(=O)C2CC2)NC(=O)[C@@H]2C[C@@H](OC(=O)N3CCc4cc(F)ccc4C3)CN2C1=O [AR00301751, (1S,4R,6S,14S,18R)-6-Fluoro-3,4-dihydro-1H-isoquinoline-2-carboxylic acid 14-tert-butoxycarbonylamino-4-cyclopropanesulfonylaminocarbonyl-2,15-dioxo-3,16-diaza-tricyclo[14.3.0.0^4,6]nonadec-7-en-18-yl ester] | > 7.00 | > 7.00 | – | – |
